How the values were obtained:
[1] = Pharmacokinetic evaluation after intravenous or gavage administration to rats; type: in vivo, SD rats; settings: rats; for AUC(0-inf): read-out: AUCINF; for AUC(0-t): read-out: AUClast; for Cmax: read-out: Cmax; for MRT inf: read-out: MRTINF; for half-life: read-out: T1/2 (converted)
Protocol: (§1) The compounds disclosed herein were administered in form of a saline solution containing 5% DMSO, 5% Kolliphor HS 15, 2% (2% HCl) and 88% Saline, or a solution containing 10% DMSO, 10% Kolliphor HS 15 and 80% physiological saline to the subject animals. For intravenous administration, the animals were administered with a dose of 1 mg/kg or 2 mg/kg, and vein blood samples (0.3 mL) were collected at the time points of 0.083, 0.25, 0.5, 1.0, 2.0, 4.0, 6.0, 8.0 and 24 h after drug administration; plasma samples were collected by centrifugation of the vein blood samples at 3000 rpm or 4000 rpm for 10 minutes, and stored at −20° C. or −70° C. For gavage administration, the animals were administered with a dose of 2.5 mg/kg or 5 mg/kg, and vein blood samples (0.3 mL) were collected at the time points of 0.25, 0.5, 1.0, 2.0, 4.0, 6.0, 8.0 and 24 h after drug administration; plasma samples were collected by centrifugation at 3000 rpm or 4000 rpm for 10 minutes, and stored at −20° C. or −70° C. The positive control is suvorexant.
(§2) The above plasma samples were analyzed by the LC-MS/MS system.

[2] = Pharmacokinetic evaluation after intravenous or gavage administration to dogs; type: in vivo, Beagle dogs; settings: dogs; for AUC(0-inf): read-out: AUCINF; for AUC(0-t): read-out: AUClast; for Cmax: read-out: Cmax; for MRT inf: read-out: MRTINF; for half-life: read-out: T1/2 (converted)
Protocol: as §1, §2

hERG channel = molecular target: T1, hERG channel (Homo sapiens, UniProt Q12809); assay: hERG fluorescence polarization assay (potential of inducing QT interval prolongation); type: binding
T1 construct: purchased Invitrogen
T1 sequence (Q12809 whole entry): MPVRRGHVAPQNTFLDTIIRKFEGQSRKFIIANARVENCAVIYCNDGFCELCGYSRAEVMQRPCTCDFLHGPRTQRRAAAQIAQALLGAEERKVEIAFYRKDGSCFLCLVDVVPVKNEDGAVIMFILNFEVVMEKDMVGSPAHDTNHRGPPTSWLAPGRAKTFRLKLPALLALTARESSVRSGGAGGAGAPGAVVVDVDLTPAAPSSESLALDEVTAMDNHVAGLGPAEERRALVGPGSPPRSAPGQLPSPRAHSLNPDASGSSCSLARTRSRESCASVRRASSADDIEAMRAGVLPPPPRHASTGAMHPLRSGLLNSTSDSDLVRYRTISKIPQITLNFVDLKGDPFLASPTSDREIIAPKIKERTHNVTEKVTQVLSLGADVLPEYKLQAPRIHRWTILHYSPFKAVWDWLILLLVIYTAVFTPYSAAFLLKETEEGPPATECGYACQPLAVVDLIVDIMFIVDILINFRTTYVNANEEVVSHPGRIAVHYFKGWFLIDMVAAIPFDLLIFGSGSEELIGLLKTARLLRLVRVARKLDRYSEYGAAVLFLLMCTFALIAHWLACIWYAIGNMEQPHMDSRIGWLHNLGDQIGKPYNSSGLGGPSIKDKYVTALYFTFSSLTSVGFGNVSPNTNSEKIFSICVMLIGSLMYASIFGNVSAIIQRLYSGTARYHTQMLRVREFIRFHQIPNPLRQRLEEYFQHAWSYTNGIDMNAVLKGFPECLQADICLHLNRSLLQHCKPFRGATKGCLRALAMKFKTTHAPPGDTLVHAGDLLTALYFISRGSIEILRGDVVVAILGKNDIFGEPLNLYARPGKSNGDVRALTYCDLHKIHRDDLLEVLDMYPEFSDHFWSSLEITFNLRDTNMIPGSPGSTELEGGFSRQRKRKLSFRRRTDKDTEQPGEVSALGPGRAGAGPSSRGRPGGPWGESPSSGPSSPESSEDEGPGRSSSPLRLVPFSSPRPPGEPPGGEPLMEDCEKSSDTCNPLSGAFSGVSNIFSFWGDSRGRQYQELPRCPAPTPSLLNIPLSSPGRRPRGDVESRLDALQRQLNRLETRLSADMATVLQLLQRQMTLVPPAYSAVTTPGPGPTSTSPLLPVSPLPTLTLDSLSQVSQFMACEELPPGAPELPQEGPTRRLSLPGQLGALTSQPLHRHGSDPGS
Protocol: The potential of the compound disclosed herein inducing QT interval prolongation was evaluated by detecting if the compound would block the hERG channel. The specific test method is as follows:
Precisely weighed compound disclosed herein was dissolved in DMSO to formulate a solution at the highest concentration of 10.0 mM, and then the solution was diluted to a initial concentration of 120.0 μM with hERG FP Assay Buffer (Invitrogen); the hERG Tracer Red stock solution (Invitrogen) and the positive control E-4031 stock solution (Invitrogen) were respectively diluted to initial concentrations of 4.0 nM and 120.0 μM with hERG FP Assay Buffer (Invitrogen). […]
The above-mentioned solution of the compound disclosed herein and E-4031 at the initial concentration of 120 μM were respectively diluted with hERG FP Assay Buffer 5-fold in series to provide 8 concentration of 120.0 μM, 24.0 μM, 4.8 μM, 960.0 nM, 192.0 nM, 38.4 nM, 7.7 nM and 1.5 nM. […] After that, the 384-well plate was put into an oscillator (PHMP-4, Grant-sio), in 25° C., 250 rpm, to incubate for 4 hours, and the fluorescence polarization values were measured by multi-function microplate reader (PHERAStarFS, BMG LABTECH) and corrected with the minimum and maximum fluorescence polarization values of E-4031, and the IC50 of the compound disclosed herein was calculated by GraphPad software. […]

[3] = Stability in human liver microsome; type: in vitro ADME; settings: microsomes, pH 4, human liver microsome 0.5 mg/mL, 1 μM, 37° C., NADPH
Protocol: A mixture of the compound of the invention and human liver microsome in 0.1 M potassium phosphate buffer (containing 1.0 mM EDTA, pH=4) was incubated at 37° C., the sample concentrations at different incubation times were measured, and then the half life of the compound was calculated by plotting “the relative amount of the compound” against “incubation time” by using software GraphPad Prism 5.01, and intrinsic clearance was calculated. The experiment system shown as table 5:
The sample was analyzed by LC/MS/MS (ESI […] source and waters xbridge C18 EB-A-1420 chromatographic column were adopted), the mobile phases were an aqueous solution with 2 mM ammonium formate and 0.1% formic acid (mobile phase A) and an methanol solution with 2 mM ammonium formate and 0.1% formic acid (mobile phase B), the flow rate was 0.4 mL/min; the column temperature was 40° C. The ratio of the sample peak area to the internal standard peak area was obtained through LC/MS/MS analysis, the content of the compound at 0 time point was as 100%, the relative content of the compound at each time point was calculated. The half life of the compound was calculated by plotting “the relative amount of the compound” against “incubation time”, and intrinsic clearance was calculated.
The positive control is suvorexant.

[4] = beagle, dog, in vivo, iv, 1 mg/kg
[5] = beagle, dog, in vivo, po, 5 mg/kg

For `Cc1ccc(-n2nccn2)c(C(=O)N2CCN(c3nc4cc(Cl)ccc4o3)CC[C@H]2C)c1` [suvorexant, reference compound], the AUC(0-inf) ([1]; SD, rat, in vivo, iv, 2 mg/kg) was 655 ng·h/mL, the AUC(0-t) ([1]; SD, rat, in vivo, iv, 2 mg/kg) was 655 ng·h/mL and the clearance ([1]; SD, rat, in vivo, iv, 2 mg/kg, read-out: Cl) was 51.2 mL/min/kg. The Cmax ([1]; SD, rat, in vivo, iv, 2 mg/kg) was 784 ng/mL, the MRT inf ([1]; SD, rat, in vivo, iv, 2 mg/kg) was 0.708 h and the half-life ([1]; SD, rat, in vivo, iv, 2 mg/kg) was 0.569 h. For the same compound, the Vd ([1]; SD, rat, in vivo, iv, 2 mg/kg, read-out: Vss) was 2.17 L/kg, the AUC(0-inf) ([1]; SD, rat, in vivo, po, 5 mg/kg) was 530 ng·h/mL and the AUC(0-t) ([1]; SD, rat, in vivo, po, 5 mg/kg) was 528 ng·h/mL. The Cmax ([1]; SD, rat, in vivo, po, 5 mg/kg) was 249 ng/mL, the MRT inf ([1]; SD, rat, in vivo, po, 5 mg/kg) was 1.95 h and the half-life ([1]; SD, rat, in vivo, po, 5 mg/kg) was 0.99 h. For the same compound, the F ([1]; po, 5 mg/kg) was 32.4%, the AUC(0-inf) [2, 4] was 5960 ng·h/mL and the AUC(0-t) [2, 4] was 5750 ng·h/mL. It also gave a clearance ([2]; beagle, dog, in vivo, iv, 1 mg/kg, read-out: Cl) of 2.82 mL/min/kg, a Cmax [2, 4] of 2100 ng/mL and an MRT inf [2, 4] of 5.39 h. It also gave a half-life [2, 4] of 5.79 h, a Vd ([2]; beagle, dog, in vivo, iv, 1 mg/kg, read-out: Vss) of 0.919 L/kg and an AUC(0-inf) [2, 5] of 14300 ng·h/mL. It also gave an AUC(0-t) [2, 5] of 13600 ng·h/mL, a Cmax [2, 5] of 1640 ng/mL and an MRT inf [2, 5] of 7.2 h. The half-life [2, 5] was 5.71 h, the F ([2]; po, 5 mg/kg) was 48% and the IC50 (hERG channel) was 1790 nM. For the same compound, the half-life at 1 μM ([3]; read-out: Half life) was 9.85 min and the CLint scaled at 1 μM ([3]; read-out: intrinsic clearance) was 176 mL/min/kg.
